In patent publication US6881741B2 (ViroChem Pharma Inc., priority 2001, dated 2005):
Read-outs that look alike come from different tables or passages of the source.

Molecular target: recombinant HCV NS5B (HCV RNA-dependent RNA polymerase) (Hepatitis C virus genotype 1b, UniProt P26663)
Test: biochemical
[1] = related polymerase activity (Example 27 list), read-out: IC50
[2] = HCV polymerase activity, list of compounds of Example 27, read-out: IC50 (polymerase activity)

recombinant HCV NS5B (HCV RNA-dependent RNA polymerase), sequence (P26663 2420-3010 limits assumed): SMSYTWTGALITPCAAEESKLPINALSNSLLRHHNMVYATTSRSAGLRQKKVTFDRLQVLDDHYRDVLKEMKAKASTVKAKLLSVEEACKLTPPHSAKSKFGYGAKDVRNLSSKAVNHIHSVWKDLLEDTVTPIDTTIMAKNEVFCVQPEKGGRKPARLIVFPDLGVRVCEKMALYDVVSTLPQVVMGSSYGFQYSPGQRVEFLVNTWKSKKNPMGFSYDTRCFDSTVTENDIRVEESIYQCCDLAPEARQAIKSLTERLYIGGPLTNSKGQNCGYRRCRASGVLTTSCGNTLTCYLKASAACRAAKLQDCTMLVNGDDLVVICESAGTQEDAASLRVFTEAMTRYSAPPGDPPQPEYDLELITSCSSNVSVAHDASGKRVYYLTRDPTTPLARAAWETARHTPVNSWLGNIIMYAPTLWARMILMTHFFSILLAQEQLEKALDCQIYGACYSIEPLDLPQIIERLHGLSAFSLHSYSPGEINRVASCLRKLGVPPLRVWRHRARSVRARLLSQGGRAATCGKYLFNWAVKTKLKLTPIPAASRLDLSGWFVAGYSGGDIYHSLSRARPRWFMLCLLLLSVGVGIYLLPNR

Row | Compound | IC50 [1] [µM] | IC50 [2] [µM]
1 | O=C(O)c1sc(-c2ccccc2)cc1NS(=O)(=O)c1cccc([N+](=O)[O-])c1 [Compound 147, 3-(3-NITRO-BENZENESULFONYLAMINO)-5-PHENYL-THIOPHENE-2-CARBOXYLIC ACID] | < 5 | –
2 | CN(C(=O)c1ccc(Cl)cc1Cl)c1cc(-c2ccccc2)sc1C(=O)O [Compound 9, 3-[(2,4-DICHLORO-BENZOYL)-METHYL-AMINO]-5-PHENYL-THIOPHENE-2-CARBOXYLIC ACID] | < 5 | –
3 | O=C(O)c1sc(-c2ccccc2)cc1NS(=O)(=O)c1ccccc1Br [Compound 76, 3-(2-BROMO-BENZENESULFONYLAMINO)-5-PHENYL-THIOPHENE-2-CARBOXYLIC ACID] | < 5 | –
4 | CC(c1ccccc1)N(C(=O)c1ccc(Cl)cc1Cl)c1cc(-c2ccccc2)sc1C(=O)O (stereo not shown) [Compound 403, 3-[(2,4-DICHLORO-BENZOYL)-(1-PHENYL- ETHYL)-AMINO]-5-PHENYL-THIOPHENE- 2-CARBOXYLIC ACID] | – | < 5
5 | O=C(O)c1sc(-c2ccccc2)cc1NS(=O)(=O)c1ccc(F)c(F)c1F [Compound 222, 5-PHENYL-3-(2,3,4-TRIFLUORO-BENZENESULFONYLAMINO)-THIOPHENE-2-CARBOXYLIC ACID] | 5 to 20 | –
6 | C=CCN(C(=O)Cc1ccc(C(F)(F)F)cc1)c1cc(-c2ccccc2)sc1C(=O)O [Compound 352, 3-{ALLYL-[2-(4-TRIFLUOROMETHYL- PHENYL)-ACETYL]-AMINO}-5-PHENYL- THIOPHENE-2-CARBOXYLIC ACID] | > 20 | –
7 | CCC1CCC(C(=O)N(c2cc(-c3ccccc3)sc2C(=O)O)C(C)C)CC1 (stereo not shown) [Compound 531, 3-[(4-ETHYL-CYCLOHEXANECARBONYL)- ISOPROPYL-AMINO]-5-PHENYL- THIOPHENE-2-CARBOXYLIC ACID] | – | < 5
8 | CC(=O)Oc1cc(C)ccc1C(=O)N(c1cc(-c2ccccc2)sc1C(=O)O)C(C)C [Compound 377, 3-[(2-ACETOXY-4-METHYL-BENZOYL)- ISOPROPYL-AMINO]-5-PHENYL- THIOPHENE-2-CARBOXYLIC ACID] | 5 to 20 | –
9 | CC1=CCC(C(=O)N(c2cc(-c3ccccc3)sc2C(=O)O)C(C)C)C1 (stereo not shown) [Compound 405, 3-[ISOPROPYL-(3-METHYL-CYCLOPENT- 3-ENECARBONYL)-AMINO]-5-PHENYL- THIOPHENE-2-CARBOXYLIC ACID] | – | < 5
10 | CCN(C(=O)C1CCCC1)c1cc(-c2ccccc2)sc1C(=O)O [Compound 391, 3-(CYCLOPENTANECARBONYL-ETHYL- AMINO)-5-PHENYL-THIOPHENE-2- CARBOXYLIC ACID] | 5 to 20 | –
11 | CC(C)(C)c1ccc(CN(C(=O)C2CCC2)c2cc(-c3ccccc3)sc2C(=O)O)cc1 [Compound 439, 3-[(4-TERT-BUTYL-BENZYL)- CYCLOBUTANECARBONYL-AMINO]-5- PHENYL-THIOPHENE-2-CARBOXYLIC ACID] | – | < 5
12 | CC1CCC(C(=O)N(c2cc(-c3ccccc3)sc2C(=O)O)C(C)C)C(C)C1 (stereo not shown) [Compound 407, 3-[(2,4-DIMETHYL- CYCLOHEXANECARBONYL)-ISOPROPYL- AMINO]-5-PHENYL-THIOPHENE-2- CARBOXYLIC ACID] | – | < 5
13 | CC(C)N(C(=O)c1ccc(Cl)cc1Cl)c1cc(-c2ccccc2)sc1C(=O)O [Compound 149, 3-[(2,4-DICHLORO-BENZOYL)-ISOPROPYL-AMINO]-5-PHENYL-THIOPHENE-2-CARBOXYLIC ACID] | < 5 | –
14 | CCOC(=O)c1ccccc1-c1cc(NS(=O)(=O)c2ccccc2C)c(C(=O)O)s1 [Compound 103, 5-(2-ETHOXYCARBONYL-PHENYL)-3-(TOLUENE-2-SULFONYLAMINO)-THIOPHENE-2-CARBOXYLIC ACID] | 5 to 20 | –
15 | CC(C)N(C(=O)c1ccc(Cl)cc1[N+](=O)[O-])c1cc(-c2ccccc2)sc1C(=O)O [Compound 329, 3-[(4-CHLORO-2-NITRO-BENZOYL)- ISOPROPYL-AMINO]-5-PHENYL- THIOPHENE-2-CARBOXYLIC ACID] | < 5 | –
16 | CC(COCc1ccccc1)N(C(=O)c1ccc(Cl)cc1Cl)c1cc(-c2ccccc2)sc1C(=O)O (stereo not shown) [Compound 516, 3-[(2-BENZYLOXY-1-METHYL-ETHYL)- (2,4-DICHLORO-BENZOYL)-AMINO]-5- PHENYL-THIOPHENE-2-CARBOXYLIC ACID] | – | < 5
17 | Cc1ccccc1S(=O)(=O)Nc1cc(-c2ccc(C(N)=O)cc2)sc1C(=O)O [Compound 282, 5-(4-CARBAMOYL-PHENYL)-3-(TOLUENE-2-SULFONYLAMINO)-THIOPHENE-2-CARBOXYLIC ACID] | 5 to 20 | –
18 | Cc1ccccc1S(=O)(=O)Nc1cc(-c2ccccc2C#N)sc1C(=O)O [Compound 102, 5-(2-CYANO-PHENYL)-3-(TOLUENE-2-SULFONYLAMINO)-THIOPHENE-2-CARBOXYLIC ACID] | 5 to 20 | –
19 | CC(C)N(C(=O)c1ccc(Cl)cc1N)c1cc(-c2ccccc2)sc1C(=O)O [Compound 328, 3-[(2-AMINO-4-CHLORO-BENZOYL)- ISOPROPYL-AMINO]-5-PHENYL- THIOPHENE-2-CARBOXYLIC ACID] | < 5 | –
20 | CCC(=O)N(Cc1cccc(Cl)c1)c1cc(-c2ccccc2)sc1C(=O)O [Compound 477, 3-[(3-CHLORO-BENZYL)-PROPIONYL- AMINO]-5-PHENYL-THIOPHENE-2- CARBOXYLIC ACID] | – | 5 to 20

Row | Compound | IC50 [1] [µM] | IC50 [2] [µM]
21 | O=C(O)c1sc(-c2ccccc2)cc1N(Cc1ccc(C(F)(F)F)cc1)C(=O)C1CCCCC1 [Compound 436, 3-[CYCLOHEXANECARBONYL-(4- TRIFLUOROMETHYL-BENZYL)-AMINO]-5- PHENYL-THIOPHENE-2-CARBOXYLIC ACID] | – | < 5
22 | O=C(O)c1sc(-c2ccccc2)cc1NS(=O)(=O)c1ccc(F)c(F)c1 [Compound 143, 3-(3,4-DIFLUORO-BENZENESULFONYLAMINO)-5-PHENYL-THIOPHENE-2-CARBOXYLIC ACID] | < 5 | –
23 | CC(C)N(C(=O)c1ccc(Cl)nc1Cl)c1cc(-c2ccccc2)sc1C(=O)O [Compound 250, 3-[(2,6-DICHLORO-PYRIDINE-3-CARBONYL)-ISOPROPYL-AMINO]-5-PHENYL-THIOPHENE-2-CARBOXYLIC ACID] | 5 to 20 | –
24 | CCCCc1ccc(-c2cc(NS(=O)(=O)c3ccccc3C)c(C(=O)O)s2)cc1 [Compound 231, 5-(4-BUTYL-PHENYL)-3-(TOLUENE-2-SULFONYLAMINO)-THIOPHENE-2-CARBOXYLIC ACID] | < 5 | –
25 | O=C(O)c1sc(-c2ccc([N+](=O)[O-])cc2)cc1NS(=O)(=O)c1ccc(F)cc1F [Compound 109, 3-(2,4-DIFLUORO-BENZENESULFONYLAMINO)-5-(4-NITRO-PHENYL)-THIOPHENE-2-CARBOXYLIC ACID] | < 5 | –
26 | O=C(O)c1sc(-c2ccccc2)cc1NC(=O)N1CCC(n2c(=O)[nH]c3ccccc32)CC1 [Compound 113, 3-{[4-(2-OXO-2,3-DIHYDRO-BENZOIMIDAZOL-1-YL)-PIPERIDINE-1-CARBONYL]-AMINO]-5-PHENYL-THIOPHENE-2-CARBOXYLIC ACID] | > 20 | –
27 | CC(C)CCC(=O)N(C)c1cc(-c2ccccc2)sc1C(=O)O [Compound 390, 3-[METHYL-(4-METHYL-PENTANOYL)- AMINO]-5-PHENYL-THIOPHENE-2- CARBOXYLIC ACID] | 5 to 20 | –
28 | Cc1ccc(C(=O)N(c2cc(-c3ccccc3)sc2C(=O)O)C(C)C)cc1F [Compound 331, 3-[(3-FLUORO-4-METHYL-BENZOYL)- ISOPROPYL-AMINO]-5-PHENYL- THIOPHENE-2-CARBOXYLIC ACID] | < 5 | –
29 | O=C(O)c1sc(-c2ccccc2)cc1NS(=O)(=O)c1ccccn1 [Compound 47, 5-PHENYL-3-(PYRIDINE-2-SULFONYLAMINO)-THIOPHENE-2-CARBOXYLIC ACID] | > 20 | –
30 | CN(C(=O)c1cc2ccccc2s1)c1cc(-c2ccccc2)sc1C(=O)O [Compound 251, 3-[(BENZO[B]THIOPHENE-2-CARBONYL)-METHYL-AMINO]-5-PHENYL-THIOPHENE-2-CARBOXYLIC ACID] | 5 to 20 | –
31 | CC1CCC(C(=O)N(c2cc(-c3ccccc3)sc2C(=O)O)C(C)C)C1 (stereo not shown) [Compound 408, 3-[ISOPROPYL-(3-METHYL- CYCLOPENTANECARBONYL)-AMINO]-5- PHENYL-THIOPHENE-2-CARBOXYLIC ACID] | – | 5 to 20
32 | Cc1c(-c2ccccc2)sc(C(=O)O)c1N(C(=O)c1ccc(Cl)cc1Cl)C(C)C [Compound 314, 3-[(2,4-DICHLORO-BENZOYL)- ISOPROPYL-AMINO]-4-METHYL-5- PHENYL-THIOPHENE-2-CARBOXYLIC ACID] | 5 to 20 | –
33 | C=CCN(C(=O)CCCC)c1cc(-c2ccccc2)sc1C(=O)O [Compound 399, 3-(ALLYL-PENTANOYL-AMINO)-5- PHENYL-THIOPHENE-2-CARBOXYLIC ACID] | – | 5 to 20
34 | O=C(O)c1sc(-c2ccccc2)cc1N(Cc1ccc(C(F)(F)F)cc1)C(=O)C1CC1 [Compound 413, 3-[CYCLOPROPANECARBONYL-(4- TRIFLUOROMETHYL-BENZYL)-AMINO]-5- PHENYL-THIOPHENE-2-CARBOXYLIC ACID] | – | 5 to 20
35 | Cc1ccc(C(=O)N(c2cc(-c3cccc(C(F)(F)F)c3)sc2C(=O)O)C(C)C)c(OCc2ccccc2)c1 [Compound 406, 3-[(2-BENZLOXY-4-METHYL-BENZOYL)- ISOPROPYL-AMINO]-5-(3- TRIFLUOROMETHYL-PHENYL)- THIOPHENE-2-CARBOXYLIC ACID] | – | < 5
36 | CC(C)CC(=O)N(Cc1cccc(Cl)c1)c1cc(-c2ccccc2)sc1C(=O)O [Compound 479, 3-[(3-CHLORO-BENZYL)-(3-METHYL- BUTYRYL)-AMINO]-5-PHENYL- THIOPHENE-2-CARBOXYLIC ACID] | – | < 5
37 | Cc1ccc(S(=O)(=O)Nc2cc(-c3ccccc3)sc2C(=O)O)cc1 [Compound 13, 5-PHENYL-3-(TOLUENE-4-SULFONYLAMINO)-THIOPHENE-2-CARBOXYLIC ACID] | < 5 | –
38 | CC1CCC(C(=O)N(c2cc(-c3ccc(F)cc3)sc2C(=O)O)C(C)C)CC1 (stereo not shown) [Compound 559, 5-(4-FLUORO-PHENYL)-3-[ISOPROPYL-(4- METHYL-CYCLOHEXANECARBONYL)- AMINO]-THIOPHENE-2-CARBOXYLIC ACID] | – | < 5
39 | Cc1ccccc1S(=O)(=O)Nc1cc(-c2ccc(Cl)cc2)sc1C(=O)O [Compound 68, 5-(4-CHLORO-PHENYL)-3-(TOLUENE-2-SULFONYLAMINO)-THIOPHENE-2-CARBOXYLIC ACID] | < 5 | –
40 | CC(=O)N(Cc1ccc(F)cc1F)c1cc(-c2ccccc2)sc1C(=O)O [Compound 483, 3-[ACETYL-(2,4-DIFLUORO-BENZYL)- AMINO]-5-PHENYL-THIOPHENE-2- CARBOXYLIC ACID] | – | 5 to 20
